The target in one series is T1, GPx4 (Rattus norvegicus, UniProt P36970).
T1 construct: GPx4 isolated from rat testis mitochondria
T1 sequence (P36970 28-197): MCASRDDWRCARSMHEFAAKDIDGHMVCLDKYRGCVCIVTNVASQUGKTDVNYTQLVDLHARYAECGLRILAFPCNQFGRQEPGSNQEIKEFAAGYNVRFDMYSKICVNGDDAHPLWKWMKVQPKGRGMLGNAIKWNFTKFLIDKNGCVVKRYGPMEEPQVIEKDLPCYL
As to the kind of experiment: coupled NADPH oxidation assay, apparent second-order rate constant. The series is classed as biochemical.

Another series addresses T2, Prx4 (Homo sapiens, UniProt Q13162).
T2 construct: gene PRDX4; His-tagged wild type human Prx4
T2 sequence (Q13162 38-271): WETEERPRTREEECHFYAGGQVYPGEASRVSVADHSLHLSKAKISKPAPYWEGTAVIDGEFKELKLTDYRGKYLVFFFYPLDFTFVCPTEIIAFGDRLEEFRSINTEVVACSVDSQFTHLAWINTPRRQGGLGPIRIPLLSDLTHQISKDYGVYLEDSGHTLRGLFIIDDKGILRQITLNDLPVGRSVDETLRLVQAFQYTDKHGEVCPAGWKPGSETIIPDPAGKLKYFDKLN
As to the kind of experiment: redox blotting, estimated rate constant at […] °C. The series is classed as biochemical.

The next series addresses T3, PKG1α (Homo sapiens, UniProt Q13976).
T3 construct: gene PRKG1; purified recombinant PKG1α, His-tag cleaved
T3 sequence (Q13976 2-671): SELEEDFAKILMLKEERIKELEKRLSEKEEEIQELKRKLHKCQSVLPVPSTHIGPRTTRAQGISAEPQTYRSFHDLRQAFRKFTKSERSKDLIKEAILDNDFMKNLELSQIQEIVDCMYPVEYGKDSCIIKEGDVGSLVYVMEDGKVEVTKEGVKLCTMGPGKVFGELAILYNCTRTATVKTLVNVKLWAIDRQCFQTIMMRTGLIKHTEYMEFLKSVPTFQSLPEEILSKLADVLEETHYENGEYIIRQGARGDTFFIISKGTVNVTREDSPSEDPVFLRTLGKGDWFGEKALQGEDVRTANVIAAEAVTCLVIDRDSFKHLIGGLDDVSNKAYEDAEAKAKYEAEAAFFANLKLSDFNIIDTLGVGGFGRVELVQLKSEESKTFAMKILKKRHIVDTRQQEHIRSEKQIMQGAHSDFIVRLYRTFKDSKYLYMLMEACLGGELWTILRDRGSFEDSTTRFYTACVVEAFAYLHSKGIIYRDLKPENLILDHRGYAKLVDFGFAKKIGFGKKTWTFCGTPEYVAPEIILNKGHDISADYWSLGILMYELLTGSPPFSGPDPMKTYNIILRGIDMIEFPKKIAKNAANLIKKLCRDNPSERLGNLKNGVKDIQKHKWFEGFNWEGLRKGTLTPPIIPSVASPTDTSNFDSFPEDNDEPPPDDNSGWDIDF
As to the kind of experiment: oxidative dimerization of purified PKG1α, non-reducing SDS-PAGE. The series is classed as biochemical.

Series [1] concerns the molecule itself. The experiment in a line: non-reducing SDS-PAGE (disulfide-linked dimer, redox blotting); purified pre-reduced Prx (20 uM) incubated with cis-WOOH, trans-WOOH (1-20 uM) or H2O2 (2.5-20 uM) for 10 s at 5 °C in 50 mM sodium phosphate pH 7.4 with 100 uM DTPA; NEM 50 mM; non-reducing 4-12% SDS-PAGE, silver stain; monomer and dimer bands.
Series [2] concerns the molecule itself. As to the kind of experiment: non-reducing SDS-PAGE (disulfide-linked dimer); purified PKG1α (3.3 uM) with 200 uM cis-WOOH or H2O2, 5 min, 25 °C, 25 mM phosphate pH 7.0, 200 uM TCEP; stopped with 125 mM maleimide; non-reducing 4-12% SDS-PAGE, silver stain.

Here are results for 5 molecules from article PMC8595612, “Hydrogen peroxide signaling via its transformation to a stereospecific alkyl hydroperoxide that escapes reductive inactivation” (Nature Communications, 2021).

`O=C(O)[C@@H]1C[C@]2(OO)c3ccccc3N[C@@H]2N1` [trans-WOOH]: the “coupled NADPH oxidation assay, apparent second-order rate constant” value on GPx4 is 1.6e+06 M⁻¹ s⁻¹. In addition, at Prx4, the “redox blotting, estimated rate constant at 5 °C” value is ~ 10^3 M^−1 s^−1.
Consider `O=C(O)[C@@H]1C[C@@]2(OO)c3ccccc3N[C@H]2N1` [cis-WOOH], for which the “coupled NADPH oxidation assay, apparent second-order rate constant” value on GPx4 is 1e+06 M⁻¹ s⁻¹. The “oxidative dimerization of purified PKG1α, non-reducing SDS-PAGE” value on PKG1α was “cis-WOOH caused greater PKG1α dimerization than the same concentrations of H2O2”. Further, on Prx4, the “redox blotting, estimated rate constant at 5 °C” value is ~ 10^3 M^−1 s^−1.

B1: His-tagged wild type human Prx2 (peroxiredoxin 2) (enzyme, UniProt P32119 1-198, looked up)
chain: MASGNARIGKPAPDFKATAVVDGAFKEVKLSDYKGKYVVLFFYPLDFTFVCPTEIIAFSNRAEDFRKLGCEVLGVSVDSQFTHLAWINTPRKEGGLGPLNIPLLADVTRRLSEDYGVLKTDEGIAYRGLFIIDGKGVLRQITVNDLPVGRSVDEALRLVQAFQYTDEHGEVCPAGWKPGSDTIKPNVDDSKEYFSKHN
notes: human peroxiredoxin 2 (Prx2), wild type; also called His-tagged Prx2; pre-reduced His-tagged Prx2; source: E. coli BL21 (DE3), pET-28a, purified (Ni-NTA)
For the molecule B1, the binding result in series [1] is given as “binds”.

B2: untagged human Prx2 (His-tag cleaved with Factor Xa) (enzyme, UniProt P32119 1-198, looked up)
chain: MASGNARIGKPAPDFKATAVVDGAFKEVKLSDYKGKYVVLFFYPLDFTFVCPTEIIAFSNRAEDFRKLGCEVLGVSVDSQFTHLAWINTPRKEGGLGPLNIPLLADVTRRLSEDYGVLKTDEGIAYRGLFIIDGKGVLRQITVNDLPVGRSVDEALRLVQAFQYTDEHGEVCPAGWKPGSDTIKPNVDDSKEYFSKHN
notes: human peroxiredoxin 2 (Prx2), wild type; also called untagged Prx2; source: E. coli BL21 (DE3), pET-28a, purified (Ni-NTA), tag cleaved with Factor Xa
Regarding B2, in series [1], the binding result was “binds”.

B3: purified recombinant human protein kinase G 1α (PKG1α) (enzyme, UniProt Q13976 1-671, looked up)
chain: MSELEEDFAKILMLKEERIKELEKRLSEKEEEIQELKRKLHKCQSVLPVPSTHIGPRTTRAQGISAEPQTYRSFHDLRQAFRKFTKSERSKDLIKEAILDNDFMKNLELSQIQEIVDCMYPVEYGKDSCIIKEGDVGSLVYVMEDGKVEVTKEGVKLCTMGPGKVFGELAILYNCTRTATVKTLVNVKLWAIDRQCFQTIMMRTGLIKHTEYMEFLKSVPTFQSLPEEILSKLADVLEETHYENGEYIIRQGARGDTFFIISKGTVNVTREDSPSEDPVFLRTLGKGDWFGEKALQGEDVRTANVIAAEAVTCLVIDRDSFKHLIGGLDDVSNKAYEDAEAKAKYEAEAAFFANLKLSDFNIIDTLGVGGFGRVELVQLKSEESKTFAMKILKKRHIVDTRQQEHIRSEKQIMQGAHSDFIVRLYRTFKDSKYLYMLMEACLGGELWTILRDRGSFEDSTTRFYTACVVEAFAYLHSKGIIYRDLKPENLILDHRGYAKLVDFGFAKKIGFGKKTWTFCGTPEYVAPEIILNKGHDISADYWSLGILMYELLTGSPPFSGPDPMKTYNIILRGIDMIEFPKKIAKNAANLIKKLCRDNPSERLGNLKNGVKDIQKHKWFEGFNWEGLRKGTLTPPIIPSVASPTDTSNFDSFPEDNDEPPPDDNSGWDIDF
notes: human cGMP-dependent protein kinase 1, isoform alpha (PKG1α); also called PK1α; source: FreeStyle 293-F cells, transfected, purified (Ni-NTA, HiTrap Q), His-tag cleaved with TEV protease
On to B3, for which the binding result in series [2] is listed as “binds”.
